Laboratory results from US9040663B2, “Melanocortin receptor-specific peptides” (AstraZeneca AB, priority 2009, dated 2015).
Where two headings read alike, the source gives them in different places.

Legend:
[1] = biological target: T1, hMC4-R (Homo sapiens (Human), UniProt P32245); test: High and low density hMC4-R functional assay (cAMP, HEK293-T-REx-MC4-R cells); format: cell-based; conditions: for Emax: NDP-α-MSH = 100%, read-out: Intrinsic Activity (%)
Experimental: The cells were then dispensed into 96-well plates (BD 353916) in 198 μL (about 5×10^4) cells/well and incubated for 10 minutes at 37° C. The compound to be tested was diluted with DMSO to a final concentration of 1 mM. […] 120 μL of the 1 mM compound stock was pipetted in the second column on the plate. […] All assay samples were run in duplicate (i.e. each sample was in two low dox and two high dox plates, respectively). The plates were gently shaken and incubated for 15 minutes at 37° C.

[2] = biological target: T1, hMC4-R; test: Competitive inhibition binding assay using [I125]-NDP-α-MSH, hMC4-R; conditions: membranes of HEK-293 cells expressing recombinant hMC4-R, read-out: MC4-R Ki
Experimental: 7.1 Competitive Inhibition Assay using [I^125]-NDP-α-MSH.
A competitive inhibition binding assay was performed for exemplified peptides according to the invention using membrane homogenates prepared from HEK-293 cells that express recombinant hMC4-R, hMC3-R, or hMC5-R, and from B-16 mouse melanoma cells (containing endogenous MC1-R). In some instances, HEK-293 cells that express recombinant hMC1-R were employed. Assays were performed in 96 well GF/B Millipore multiscreen filtration plates (MAFB NOB10) pre-coated with 0.5% bovine serum albumin (Fraction V). Membrane homogenates were incubated with 0.2 nM (for hMC4-R) 0.4 nM (for MC3-R and MC5-R) or 0.1 nM (for mouse B16 MC1-R or hMC1-R) [I^125]-NDP-α-MSH (Perkin Elmer) and increasing concentrations of test peptides of the present invention in buffer containing 25 mM HEPES buffer (pH 7.5) with 100 mM NaCl, 2 mM CaCl2, 2 mM MgCl2, 0.3 mM 1,10-phenanthroline, and 0.2% bovine serum albumin. After incubation for 60 minutes at 37° C., the assay mixture was filtered and the membranes washed three times with ice-cold buffer. Filters were dried and counted in a gamma counter for bound radioactivity. […] Maximal specific binding (100%) was defined as the difference in radioactivity (cpm) bound to cell membranes in the absence and presence of 1 μM NDP-α-MSH. […] Each assay was conducted in triplicate and the actual mean values are described, with results less than 0% reported as 0%. Ki values for test peptides of the present invention were determined using Graph-Pad Prism® curve-fitting software.

[3] = 0.1 ng/mL Doxycycline (low density hMC4-R system)
[4] = 10 ng/mL Doxycycline (high density hMC4-R system)

T1 sequence (P32245 whole entry): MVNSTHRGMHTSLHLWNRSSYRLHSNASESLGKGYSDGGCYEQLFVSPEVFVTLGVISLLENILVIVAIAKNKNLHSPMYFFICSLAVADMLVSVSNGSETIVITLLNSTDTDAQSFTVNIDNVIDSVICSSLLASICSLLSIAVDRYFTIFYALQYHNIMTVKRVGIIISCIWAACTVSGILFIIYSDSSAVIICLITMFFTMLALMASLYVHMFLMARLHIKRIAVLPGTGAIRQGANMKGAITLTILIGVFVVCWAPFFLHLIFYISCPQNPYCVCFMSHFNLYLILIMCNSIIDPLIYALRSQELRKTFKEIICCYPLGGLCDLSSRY

SMILES | EC50 [1, 3] | Emax [1, 3] | EC50 [1, 4] | Emax [1, 4] | Ki [2]
CC(=O)N[C@@H](CCCNC(=N)N)C(=O)N[C@H]1CCC(=O)NCCC[C@@H](C(N)=O)NC(=O)[C@H](Cc2c[nH]c3ccccc23)NC(=O)[C@H](CCCNC(=N)N)NC(=O)[C@@H](Cc2cccc(C(F)(F)F)c2)NC(=O)[C@H](CCN)NC1=O [Example 14, Ac-Arg-cyclo(Glu-Dab-D-Phe(3-CF3)-Arg-Trp-Orn)-NH2] | 8 nM | 16% | 0.4 nM | 93% | 0.95 nM
CC(=O)N[C@@H](CCCNC(=N)N)C(=O)N[C@H]1CCC(=O)NCCC[C@@H](C(N)=O)NC(=O)[C@H](Cc2c[nH]c3ccccc23)NC(=O)[C@H](CCCNC(=N)N)NC(=O)[C@@H](Cc2ccccc2[N+](=O)[O-])NC(=O)[C@H](CCN)NC1=O [Example 22, Ac-Arg-cyclo(Glu-Dab-D-Phe(2-NO2)-Arg-Trp-Orn)-NH2] | 3 nM | 78% | 0.2 nM | 93% | 11 nM
CC(=O)N[C@@H](CCCNC(=N)N)C(=O)N[C@H]1CCC(=O)NCCC[C@@H](C(N)=O)NC(=O)[C@H](Cc2c[nH]c3ccccc23)NC(=O)[C@H](CCCNC(=N)N)NC(=O)[C@@H](Cc2ccc(C)cc2)NC(=O)[C@H](CCN)NC1=O [Example 15, Ac-Arg-cyclo(Glu-Dab-D-Phe(4-Me)-Arg-Trp-Orn)-NH2] | 0.165 nM | 16% | 0.2 nM | 90% | 0.145 nM
CC(=O)N[C@@H](CCCNC(=N)N)C(=O)N[C@H]1CCC(=O)NCCC[C@@H](C(N)=O)NC(=O)[C@H](Cc2c[nH]c3ccccc23)NC(=O)[C@H](CCCNC(=N)N)NC(=O)[C@@H](Cc2ccccc2Cl)NC(=O)[C@H](CN)NC1=O [Example 62, Ac-Arg-cyclo(Glu-Dap-D-Phe(2-Cl)-Arg-Trp-Orn)-NH2] | 16 nM | 23% | 0.47 nM | 84% | 9 nM
CC(=O)N[C@@H](CCCNC(=N)N)C(=O)N[C@H]1CCC(=O)NCCC[C@@H](C(N)=O)NC(=O)[C@H](Cc2c[nH]c3ccccc23)NC(=O)[C@H](CCCNC(=N)N)NC(=O)[C@@H](Cc2ccc(-c3ccccc3)cc2)NC(=O)[C@H](CCN)NC1=O [Example 29, Ac-Arg-cyclo(Glu-Dab-D-Phe(4-Ph)-Arg-Trp-Orn)-NH2] | 3 nM | 14% | 0.8 nM | 100% | 0.5 nM
CC(=O)N[C@@H](CCCNC(=N)N)C(=O)N[C@H]1CCCNC(=O)CC[C@@H](C(N)=O)NC(=O)[C@H](Cc2c[nH]c3ccccc23)NC(=O)[C@H](CCCNC(=N)N)NC(=O)[C@@H](Cc2ccc(C#N)cc2)NC(=O)[C@H](CC(N)=O)NC1=O [Example 91, Ac-Arg-cyclo(Orn-Asn-D-Phe(4-CN)-Arg-Trp-Glu)-NH2] | 1 nM | 18% | 0.265 nM | 96% | 4 nM
CC(=O)N[C@@H](CCCNC(=N)N)C(=O)N[C@H]1CCC(=O)NCCC[C@@H](C(N)=O)NC(=O)[C@H](Cc2c[nH]c3ccccc23)NC(=O)[C@H](CCCNC(=N)N)NC(=O)[C@@H](Cc2cccc([N+](=O)[O-])c2)NC(=O)[C@H](CCN)NC1=O [Example 23, Ac-Arg-cyclo(Glu-Dab-D-Phe(3-NO2)-Arg-Trp-Orn)-NH2] | 2 nM | 17% | 0.55 nM | 95% | 0.7 nM
CC(=O)N[C@@H](CCCNC(=N)N)C(=O)N[C@H]1CCC(=O)NCCC[C@@H](C(N)=O)NC(=O)[C@H](Cc2c[nH]c3ccccc23)NC(=O)[C@H](CCCNC(=N)N)NC(=O)[C@@H](Cc2ccccc2C)NC(=O)[C@H](CC(N)=O)NC1=O [Example 73, Ac-Arg-cyclo(Glu-Asn-D-Phe(2-Me)-Arg-Trp-Orn)-NH2] | – | 86% | – | 102% | 4 nM
CC(=O)N[C@H](CCCNC(=N)N)C(=O)N[C@H]1CC(=O)NCCCC[C@@H](C(N)=O)NC(=O)[C@H](Cc2c[nH]c3ccccc23)NC(=O)[C@H](CCCNC(=N)N)NC(=O)[C@@H](Cc2ccc(F)cc2)NC(=O)[C@H](CCC(N)=O)NC1=O [Example 83, Ac-D-Arg-cyclo(Asp-Gln-D-Phe(4-F)-Arg-Trp-Lys)-NH2] | 0.75 nM | 78% | 0.075 nM | 94% | 6 nM
CC(=O)N[C@@H](CCCNC(=N)N)C(=O)N[C@H]1CCC(=O)NCCC[C@@H](C(N)=O)NC(=O)[C@H](Cc2c[nH]c3ccccc23)NC(=O)[C@H](CCCNC(=N)N)NC(=O)[C@@H](Cc2ccccc2C#N)NC(=O)[C@H](CCN)NC1=O [Example 12, Ac-Arg-cyclo(Glu-Dab-D-Phe(2-CN)-Arg-Trp-Orn)-NH2] | 34 nM | 64% | 0.5 nM | 97% | 45 nM
CC(=O)N[C@@H](CCCNC(=N)N)C(=O)N[C@H]1CC(=O)NCCCC[C@@H](C(N)=O)NC(=O)[C@H](Cc2c[nH]c3ccccc23)NC(=O)[C@H](CCCNC(=N)N)NC(=O)[C@@H](Cc2ccc(F)cc2)NC(=O)[C@@H]2CCCN2C1=O [Example 103, Ac-Arg-cyclo(Asp-Pro-D-Phe(4-F)-Arg-Trp-Lys)-NH2] | 1 nM | 32% | 0.13 nM | 100% | 4 nM
CC(=O)N[C@@H](CCCNC(=N)N)C(=O)N[C@H]1CCC(=O)NCCC[C@@H](C(N)=O)NC(=O)[C@H](Cc2c[nH]c3ccccc23)NC(=O)[C@H](CCCNC(=N)N)NC(=O)[C@@H](Cc2cc(F)cc(F)c2)NC(=O)[C@H](CCN)NC1=O [Example 17, Ac-Arg-cyclo(Glu-Dab-D-Phe(3,5-diF)-Arg-Trp-Orn)-NH2] | 0.95 nM | 64% | 0.12 nM | 95% | 2 nM
CC(=O)N[C@@H](CCCNC(=N)N)C(=O)N[C@H]1CCC(=O)NCCC[C@@H](C(N)=O)NC(=O)[C@H](Cc2c[nH]c3ccccc23)NC(=O)[C@H](CCCNC(=N)N)NC(=O)[C@@H](Cc2cccc(Cl)c2)NC(=O)[C@H](CCN)NC1=O [Example 2, Ac-Arg-cyclo(Glu-Dab-D-Phe(3-Cl)-Arg-Trp-Orn)-NH2] | 0.56 nM | 36% | 0.095 nM | 99% | 0.75 nM
CC(=O)N[C@@H](CCCNC(=N)N)C(=O)N[C@H]1CCC(=O)NCCC[C@@H](C(N)=O)NC(=O)[C@H](Cc2c[nH]c3ccccc23)NC(=O)[C@H](CCCNC(=N)N)NC(=O)[C@@H](Cc2cccc(Cl)c2)NC(=O)[C@H](CN)NC1=O [Example 61, Ac-Arg-cyclo(Glu-Dap-D-Phe(3-Cl)-Arg-Trp-Orn)-NH2] | – | 6% | 0.95 nM | 89% | 4 nM
CC(=O)N[C@@H](CCCNC(=N)N)C(=O)N[C@H]1CCC(=O)NCCC[C@@H](C(N)=O)NC(=O)[C@H](Cc2c[nH]c3ccccc23)NC(=O)[C@H](CCCNC(=N)N)NC(=O)[C@@H](Cc2ccccc2F)NC(=O)[C@H](CCN)NC1=O [Example 9, Ac-Arg-cyclo(Glu-Dab-D-Phe(2-F)-Arg-Trp-Orn)-NH2] | 0.09 nM | 91% | 0.035 nM | 89% | 0.7 nM
CC(=O)N[C@@H](CCCNC(=N)N)C(=O)N[C@H]1CCC(=O)NCCC[C@@H](C(N)=O)NC(=O)[C@H](Cc2c[nH]c3ccccc23)NC(=O)[C@H](CCCNC(=N)N)NC(=O)[C@@H](Cc2cc(F)c(F)c(F)c2)NC(=O)[C@H](CCN)NC1=O [Example 27, Ac-Arg-cyclo(Glu-Dab-D-Phe(3,4,5-triF)-Arg-Trp-Orn)-NH2] | 0.7 nM | 37% | 0.33 nM | 97% | 0.667 nM
CC(=O)N[C@@H](CCCNC(=N)N)C(=O)N[C@H]1CCC(=O)NCCC[C@@H](C(N)=O)NC(=O)[C@H](Cc2c[nH]c3ccccc23)NC(=O)[C@H](CCCNC(=N)N)NC(=O)[C@@H](Cc2ccc(C)cc2C)NC(=O)[C@H](CCN)NC1=O [Example 21, Ac-Arg-cyclo(Glu-Dab-D-Phe(2,4-diMe)-Arg-Trp-Orn)-NH2] | – | 8% | 0.5 nM | 97% | 0.085 nM
CC(=O)N[C@@H](CCCNC(=N)N)C(=O)N[C@H]1CCCNC(=O)CC[C@@H](C(N)=O)NC(=O)[C@H](Cc2c[nH]c3ccccc23)NC(=O)[C@H](CCCNC(=N)N)NC(=O)[C@@H](Cc2ccc(F)cc2)NC(=O)[C@H](CC(N)=O)NC1=O [Example 70, Ac-Arg-cyclo(Orn-Asn-D-Phe(4-F)-Arg-Trp-Glu)-NH2] | 0.4 nM | 64% | 0.1 nM | 91% | 3 nM
